Several values for one entry are separate records, joined by “and”; a condition that tells them apart may be missing. Equal values may be shown once. Entries after “also recorded” stand apart in the source; their conditions may differ.
Legend:
[1] = tested on: C57BL/6J mice; assay: Head twitch response (HTR); assay type: in vivo, mouse; conditions: 30 minutes after injection
Procedure: Male C57BL/6J mice at 6-8 weeks of age were purchased from Jackson Laboratories and housed four per cage in a climate and humidity-controlled room in a vivarium at the University of California, San Diego. The room operated on a reverse light cycle (lights on at 1900 h, off at 0700 h) with food and water available ad libitum, except during testing. All testing was performed during 1000 h and 1800 h. After a minimum of 1 week acclimation to the housing facility, mice were anesthetized using a mixture of ketamine (100 mg/kg IP) and xylazine (10 mg/kg IP). Under deep anesthesia, an incision was made in the scalp and a small neodymium magnet (4.57 mm×4.57 mm×2.03 mm) was attached to the cranium using cyanoacrylate and dental cement. After at least a 2-week recovery period, the mouse was removed from the home cage and injected intraperitoneally with the test article or vehicle (0.9% sterile saline). Immediately, the mouse was placed in a glass cylinder surrounded by a magnetometer coil and the head twitch response (HTR) was assessed for 30 minutes (Halberstadt and Geyer, 2013). The output of the coil was recorded using a Powerlab/8SP with LabChart v.7.3.2 (ADInstruments). Coil voltage was amplified, low-pass filtered (2-10 kHz cut-off frequency) to remove interference, digitized and sampled at 20 kHz. Head twitches were identified using a validated technique based on artificial intelligence (Halberstadt, 2020). Events in the recordings were transformed into a visual representation in the time-frequency domain and deep features were extracted using the pretrained convolutional neural network ResNet-50, and the images were subsequently classified using a Support Vector Machine algorithm.
Test articles (R,S-MDA, R(−)-MDA, S-(+)MDA), R,S-MDMA, R(−)-MDMA and S(+)-MDMA) were supplied by the NIDA Drug Supply Program as neat powders. Racemic MDA and MDMA and their enantiomers were dissolved in saline and injected IP at a volume of 5 mL/kg. Each dose was calculated based on the salt form of the compounds. For each treatment condition, six groups of mice (n=5-6/group) were treated with vehicle or the test drug (0.1, 0.3, 1, 3, or 10 mg/kg) and HTR assessed for 30 minutes immediately following injections. To avoid carryover effects, each treatment condition was performed at least seven days apart. Total number of mice used for the experiment was 63.

[2] = Rat plasma pharmacokinetics after cumulative (QID) SC injections; conditions: for dose dependence of Cmax and AUC0-27 hr: QID SC; for AUC0-27 hr / AUC0-27 hr/Dose / AUCTlast / Cmax / Cmax/Dose / Tlast / Tmax: male rat plasma
[3] = tested on: CD (Sprague Dawley) rats; assay: Rat telemetry: heart rate, blood pressure, body temperature, activity after cumulative SC dosing; assay type: in vivo; conditions: for Rank Order Blood Pressures (Systolic, Diastolic, and Mean Arterial) Effects / Rank Order Body Temperature Effects / Rank Order General Activity Effects / Rank Order Heart Rate Measurement Effects: telemetry, cumulative SC dosing, dose groups stated in the value
Text: Methods. A total of 42 adult male CD® (Sprague Dawley) rats (Charles River Laboratories) were surgically implanted with DSI radiotelemetry devices by personnel at Charles River Laboratories Raleigh, NC, per their test site SOPs. Telemetry devices supported continuous recording of temperature, activity, blood pressure and heart rate. Telemeterized rats were shipped to the Charles River Laboratories testing facility (Mattawan, MI) and acclimated to the environment for at least 1 week prior to experimentation. Animals were pair-housed in solid bottom cages with nonaromatic bedding. On the dosing day, animals were singly housed and then returned to the paired cohort following the dosing/telemetry recording phase. Diet (Lab Diet® Certified Rodent Diet #5CR4) and tap water via an automatic water system were available ad libitum, except during designated procedures. Temperature and humidity were maintained according to the Testing Facility SOP. Animals were randomized into treatment groups using a standard, by weight, measured value randomization procedure. Body weight was determined for each rat prior to dosing.
As illustrated in the Table, a total of 36 rats were included in the study. The vehicle and 2 test article doses were administered in a volume of 1 mL/kg to each of 3 groups of n=12 telemeterized rats via subcutaneous injection four times on a given day, followed by neurobehavioral evaluations. This series was repeated 3 times on study. Each group received all 3 dose levels of the applicable test or control article in ascending order with a 1-week washout between dose levels.
Mortality/cage side clinical observations were conducted for all study animals at least twice daily beginning upon receipt through termination, except on days of receipt and termination where frequency was at least once daily. Detailed clinical observations were conducted for all study animals prior to each of the four cumulative doses in a series. Individual body weights were conducted for all study animals at transfer, prior to randomization, on the day of dosing on each of the 3 cycles of dosing. The body weights recorded at transfer and prior to randomization are not reported but are maintained in the study file. Veterinary care was available throughout the course of the study, and animals were examined by the veterinary staff as needed based on clinical signs or other changes. All animals were provided with HydroGel the night prior to their respective dosing days to potentially mitigate any animal welfare issues related to fluid loss/dehydration.
Telemetry monitoring was conducted for all animals 2 hours prior to dosing and through to 7.5 hours following the last (4th) cumulative dose of each series, which included continuous data collection of body temperature, activity, heart rate, and blood pressure (systolic, diastolic, and mean arterial) using telemetry.
The total period of time over which the statistical analyses were conducted encompassed the entire dosing period for all animals (i.e., Dose 1 through 7.5 hour post-4th dose) in an effort to draw conclusions regarding the effects of the dosing procedure and cumulative changes by allowing comparisons between the cumulative dosing periods. The following statistical analyses were performed for each analysis segment.
All time-series data comparisons conducted via statistical analysis are relative to the control treatment and are based on the LSMean values. Additionally, the change values used for the statistical analysis were calculated using a baseline of the 2 hours of pre-dose data, prior to the first compound injection of the series. The raw change values were analyzed.

[4] = Rat brain monoamine and metabolite concentrations 1 week after cumulative SC dosing; conditions: for 5-HIAA mean brain concentration / 5-HT mean brain concentration: frontal cortex; for 5-HIAA mean brain concentration / 5-HT mean brain concentration / DA mean brain concentration / DOPAC mean brain concentration / HVA mean brain concentration: male rat; for DA mean brain concentration / DOPAC mean brain concentration / HVA mean brain concentration: striatum
[5] = metabolite S-MDA after QID SC S-MDMA, total 5 mg/kg/day
[6] = metabolite after QID SC parent, total 10 mg/kg/day
[7] = metabolite after QID SC parent, total 20 mg/kg/day
[8] = maximum change, R-MDMA and racemic MDMA 10, 20 mg/kg/day, S-MDMA 5, 10 mg/kg/day, 4 hourly SC injections
[9] = racemic MDMA 20 mg/kg/day, S-MDMA 10 mg/kg/day, approximate
[10] = 1 week after 4 hourly SC injections of 2.5 mg/kg
[11] = 1 week after 4 hourly SC injections of 5 mg/kg
[12] = 1 week after 4 hourly SC injections of 5 mg/kg, 5 mg/kg
[13] = 1 week after 4 hourly SC injections of 10 mg/kg, N=2
[14] = 1 week after 4 hourly SC injections of 10 mg/kg, N=2, 10 mg/kg

SMILES: C[C@H](N)Cc1ccc2c(c1)OCO2 [S-MDA, S(+)-MDA]
- head twitch response (HTR) compared to control (vehicle) ([1]; 10 mg/kg IP): reduction of HTR
- dose dependence of Cmax and AUC0-27 hr ([2]; from 5 to 10 mg/kg/day S-MDMA): approximately dose proportional manner
- dose dependence of Cmax and AUC0-27 hr ([2]; from 5 to 20 mg/kg/day S-MDMA): greater than dose proportional manner
- AUC0-27 hr [2, 5]: 1280 ng·h/mL
- AUC0-27 hr/Dose [2, 5]: 256 *kg*ng/mL/mg
- AUCTlast [2, 5]: 1270 ng·h/mL
- Cmax [2, 5]: 342 ng/mL
- Cmax/Dose [2, 5]: 68.4 kg·ng/mL/mg
- Tlast [2, 5]: 9 h
- Tmax [2, 5]: 4 h
- Cmax ([2]; metabolite after QID SC parent (R-MDA after R-MDMA, S-MDA after S-MDMA, total MDA after Rac-MDMA), total 10 mg/kg/day): 957 ng/mL
- Cmax ([2]; metabolite after QID SC parent (R-MDA after R-MDMA, S-MDA after S-MDMA, total MDA after Rac-MDMA), total 20 mg/kg/day): 2500 ng/mL
- AUC0-27 hr [2, 6]: 6770 ng·h/mL
- AUC0-27 hr/Dose [2, 6]: 677 *kg*ng/mL/mg
- AUCTlast [2, 6]: 5180 ng·h/mL
- Cmax/Dose [2, 6]: 95.7 kg·ng/mL/mg
- Tlast [2, 6]: 11 h
- Tmax [2, 6]: 5 h
- AUC0-27 hr [2, 7]: 26300 ng·h/mL
- AUC0-27 hr/Dose [2, 7]: 1320 *kg*ng/mL/mg
- AUCTlast [2, 7]: 26300 ng·h/mL
- Cmax/Dose [2, 7]: 125 kg·ng/mL/mg
- Tlast [2, 7]: 27 h
- Tmax [2, 7]: 5 h

SMILES: CNC(C)Cc1ccc2c(c1)OCO2 (racemic) [Racemic MDMA, 3,4-methylenedioxymethamphetamine]
- hemodynamic parameters (systolic/diastolic/mean arterial blood pressures and heart rate) ([3]; 4 hourly SC injections, cumulative doses 5, 10, or 20 mg/kg/day): dose-dependent blood pressure-increasing effects
- body temperature response ([3]; S-MDMA 5, 10 mg/kg/day, racemic-MDMA 10, 20 mg/kg/day, 4 hourly SC injections): hyperthermic response
- activity (implanted telemetry devices) ([3]; all cumulative doses (5, 10, or 20 mg/kg/day)): Activity-increasing effects
- blood pressure increase [mean arterial pressure] [3, 8]: up to +46%
- heart rate increase [3, 8]: up to +37%
- peak body temperatures ([3]; overall mean magnitude of change, 4 hourly SC injections): 40.0 °C
- period of significantly increased body temperature compared to R-MDMA (10 mg/kg/day) [3, 9]: 1-4 hours post initiation of dosing
- period of significantly increased heart rate compared to R-MDMA (10 mg/kg/day) [3, 9]: 3-10 hours post initiation of dosing
- period of significantly increased mean arterial blood pressure compared to R-MDMA (10 mg/kg/day) [3, 9]: 1-3 hours post initiation of dosing
- period of significantly increased systolic blood pressure compared to R-MDMA (10 mg/kg/day) [3, 9]: 1-3 hours post initiation of dosing
- Rank Order Blood Pressures (Systolic, Diastolic, and Mean Arterial) Effects ([3]; listed as Rac-MDMA): R-MDMA (20 mg/kg/day) < S-MDMA (10 mg/kg/day) < Rac-MDMA (20 mg/kg/day); also recorded: Rac-MDMA (0 mg/kg/day) < Rac-MDMA (10 mg/kg/day) < Rac-MDMA (20 mg/kg/day); also recorded: R-MDMA (10 mg/kg/day) < S-MDMA (10 mg/kg/day) < Rac-MDMA (20 mg/kg/day)
- Rank Order Body Temperature Effects ([3]; listed as Rac-MDMA): R-MDMA (20 mg/kg/day) < S-MDMA (10 mg/kg/day) < Rac-MDMA (20 mg/kg/day); also recorded: Rac-MDMA (0 mg/kg/day) < Rac-MDMA (10 mg/kg/day) < Rac-MDMA (20 mg/kg/day); also recorded: R-MDMA (10 mg/kg/day) < S-MDMA (10 mg/kg/day) < Rac-MDMA (20 mg/kg/day)
- Rank Order General Activity Effects ([3]; listed as Rac-MDMA): R-MDMA (20 mg/kg/day) < S-MDMA (10 mg/kg/day) < Rac-MDMA (20 mg/kg/day); also recorded: Rac-MDMA (0 mg/kg/day) < Rac-MDMA (10 mg/kg/day) < Rac-MDMA (20 mg/kg/day); also recorded: R-MDMA (10 mg/kg/day) < S-MDMA (10 mg/kg/day) < Rac-MDMA (20 mg/kg/day)
- Rank Order Heart Rate Measurement Effects ([3]; listed as Rac-MDMA): R-MDMA (20 mg/kg/day) < S-MDMA (10 mg/kg/day) < Rac-MDMA (20 mg/kg/day); also recorded: Rac-MDMA (0 mg/kg/day) < Rac-MDMA (10 mg/kg/day) < Rac-MDMA (20 mg/kg/day); also recorded: R-MDMA (10 mg/kg/day) < S-MDMA (10 mg/kg/day) < Rac-MDMA (20 mg/kg/day)
- Rank Order Blood Pressures (Systolic, Diastolic, and Mean Arterial) Effects ([3]; listed as Rac.-MDMA): R-MDMA (10 mg/kg/day) < S-MDMA (5 mg/kg/day) < Rac.-MDMA (10 mg/kg/day)
- Rank Order Body Temperature Effects ([3]; listed as Rac.-MDMA): R-MDMA (10 mg/kg/day) < S-MDMA (5 mg/kg/day) < Rac.-MDMA (10 mg/kg/day)
- Rank Order General Activity Effects ([3]; listed as Rac.-MDMA): R-MDMA (10 mg/kg/day) < S-MDMA (5 mg/kg/day) < Rac.-MDMA (10 mg/kg/day)
- Rank Order Heart Rate Measurement Effects ([3]; listed as Rac.-MDMA): R-MDMA (10 mg/kg/day) < S-MDMA (5 mg/kg/day) < Rac.-MDMA (10 mg/kg/day)
- head twitch response (HTR) compared to control (vehicle) ([1]; 3 mg/kg IP, listed as R,S-MDMA): decrease in HTR
- frontal cortex 5-HT (serotonin) compared to vehicle ([4]; cumulative SC, 5 mg/kg/injection, 1 week after dosing): significantly reduced frontal cortex 5-HT concentrations
- 5-HIAA mean brain concentration [4, 10]: 368.17 ng/g
- 5-HT mean brain concentration [4, 10]: 183.90 ng/g
- 5-HIAA mean brain concentration [4, 11]: 234.63 ng/g
- 5-HT mean brain concentration [4, 12]: 88.38 ng/g and 88.38 b** n* p* ng/g
- 5-HIAA mean brain concentration [4, 13]: 235.00 ng/g
- 5-HT mean brain concentration [4, 13]: 100.85 ng/g
- DA mean brain concentration [4, 10]: 5956.67 ng/g
- DOPAC mean brain concentration [4, 10]: 1811.00 ng/g
- HVA mean brain concentration [4, 10]: 706.83 ng/g
- DA mean brain concentration [4, 11]: 5190.63 ng/g
- HVA mean brain concentration [4, 11]: 577.00 ng/g
- DOPAC mean brain concentration [4, 12]: 1962.75 ng/g and 1962.75 h** ng/g
- DA mean brain concentration [4, 13]: 7405.00 ng/g
- DOPAC mean brain concentration [4, 14]: 2015.00 ng/g and 2015.00 h* ng/g
- HVA mean brain concentration [4, 14]: 923.50 ng/g and 923.50 d**h* ng/g

From patent US20240082212A1, “USE OF MDMA FOR TREATMENT OF STRESS-RELATED DISORDERS” (priority 2022, published 2024)
